Assay results taken from PMC6433934, “Preclinical Evaluation of Bispecific Adaptor Molecule Controlled Folate Receptor CAR-T Cell Therapy With Special Focus on Pediatric Malignancies” (Frontiers in Oncology, 2019).

Tested on: MDA-MB-231 tumors
Assay: EC17 dose finding safety study, tumor-bearing mice
Type: in vivo, NSG mice
Conditions: for higher IFNγ production in mouse plasma vs CAR-T cells only: all EC17 regimens
Experimental: All animal care and use were performed according to NIH guidelines and in compliance with protocols approved by the Purdue University Animal Use and Care Committee. Female 4 to 5-weeks-old NOD/SCID gamma (NSG™) mice (stock number: 005557) were purchased from The Jackson Laboratory (Bar Harbor, ME). Unless specifically indicated, all animals were maintained on a FA-deficient diet (TestDiet, St. Louis, MO) upon arrival and throughout the study. To establish subcutaneous xenografts, MDA-MB-231 and HOS-FRα were implanted in the right flank region at 2.5 × 10^6 and 1 × 10^6 cells per animal, respectively. For intravenous xenografts, THP1-FRβ cells were inoculated at 5 × 10^6 cells per animal. Subcutaneous tumors were measured 2–3 times per week with a caliper and calculated using the ellipsoidal formula (length x width^2)/2. […] All animal doses (CAR-T cells, EC17, sodium fluorescein) were given intravenously.
In a therapeutic setting, EC17 CAM can theoretically be given before or after CAR-T cell injection ([33]). For all intended purposes here, we administered the first dose of EC17 2–3.5 days after CAR-T cells to allow for an observation period of human T cells in tumor-bearing mice. Two batches of unsorted E2-CAR-T cells (23% or 39% EGFRt+, 1:1 CD4/CD8) were used for in vivo studies. On the day of infusion for each experiment (day 0), frozen CAR-T cells were quickly thawed at 37°C, washed 2x with Dulbecco's 1X PBS (pH 7.4) and injected into the tail veil at desired EGFRt+ E2-CAR-T cell doses. In addition, a small aliquot of CAR-T cells was analyzed by flow cytometry for CD4 to CD8 ratio and differentiation status of CAR-T cells. On the first day of EC17 dose, tumor-bearing animals were randomly assigned into groups according to their tumor sizes or the same number of days post intravenous implantation (i.e., THP1-FRβ).
For MDA-MB-231 studies, mice received a high dose (~10 million) of a “clinical facsimile” of E2-CAR-T cells (~39% EGFRt+) with a low differentiation profile. Two days later, we started them with 3 different treatment regimens of EC17 at an average tumor size of ~293 ± 39 mm^3. The EC17 dosing was given once-a-week (SIW) at 500 nmol/kg on Mondays, or as escalating doses of 5, 50, or 100, and 500 or 1,000 nmol/kg on Monday, Thursday, and Monday with a 6 day break in-between cycles. Control mice were left untreated (received CAR-T cells but no EC17). For comparison, a cohort of tumor-free littermates also received the same number of CAR-T cells without or with EC17 SIW at 500 nmol/kg. To study the effect of high dietary folate, two sets of NSG mice were placed on either a FA-replete diet (4 mg/kg, Envigo, Indianapolis, IN) or a FA-deficient diet (TestDiet, St. Louis, MO) upon arrival. On day 0, both sets of the mice received ~10 million of the same “clinical facsimile” CAR-T cells followed by no EC17 or EC17 SIW at 500 nmol/kg starting on day 3. On the first day of EC17 administration, MDA-MB-231 tumors size averaged around ~549 ± 184 mm^3 (280–918 mm^3) in FA-replete mice, and ~559 ± 165 mm^3 (356–961 mm^3) in FA-deficient mice.
Depending on the CAR-T cell dose and how EC17 is administered, tumor-bearing mice receiving FITC-specific CAR-T cells can experience severe CRS and varying degrees of body weight loss ([27], [33], [34]). […] On the days immediately following each EC17 dose, animals were scored and rescue agents such as sodium fluorescein, folic acid and leucovorin were used to mitigate CRS toxicity ([33]). […]

## Nc1nc2ncc(CNc3ccc(C(=O)NC(CCC(=O)NCCNC(=S)Nc4ccc(-c5c6ccc(=O)cc-6oc6cc(O)ccc56)c(C(=O)O)c4)C(=O)O)cc3)nc2c(=O)[nH]1 (centres unmarked) [EC17, FA-(γ)-ethylenediamine-FITC]
EC17-treated cohorts (SIW 500, 5/50/500, 5/100/1000 nmol/kg), ~10 million E2-CAR-T cells
  cures: 100%
Day 11, ~20 h after previous EC17 dose, ~10 million E2-CAR-T cells
  higher IFNγ production in mouse plasma vs CAR-T cells only: ~ 30 x
Day 12, ~42 h after previous EC17 dose, ~10 million E2-CAR-T cells
  higher IFNγ production in mouse plasma vs CAR-T cells only: ~ 10 x
tumor-bearing animals, ~10 million E2-CAR-T cells plus EC17, last measurement
  persistence of CAR-T cells in mouse blood: up to 54 days
tumor-bearing, ~10 million E2-CAR-T cells, continued EC17 dosing independent of the regimen, 0–5 scale
  CRS grade: 2-3
